{
  "source": "paper PMC6364417",
  "about": "“Kinase inhibitor library screening identifies synergistic drug combinations effective in sensitive and resistant melanoma cells” (Journal of Experimental & Clinical Cancer Research : CR, 2019)",
  "assay_in_all_cases": "Kinase inhibitor library screening, PrestoBlue cell viability, 1 or 10 μM, 72 h",
  "key": {"501Mel cells (parental)": {"tested_on": "501Mel cells (parental)", "protocol": "(§1) After 72 h of treatment, cell viability was assessed using the PrestoBlue Cell Viability Reagent (ThermoFisher Scientific). Measurements were performed with the CLARIOstar Monochromator microplate reader (BMG Labtech).\n(§2) Kinase inhibitor library screening. […] Each cell line was treated in its sensitive form (parental), and also as 2 resistant derivatives, which were made resistant to either Vemurafenib (XP) or Dabrafenib (GP). Drugs were added at 2 different concentrations, 1 and 10 μM, for 72 h and cell viability was assessed using the PrestoBlue Cell Viability assay. Results are depicted as % viability compared to untreated cells. Each cell line was analyzed at least in duplicate. […] (XLSX 95 kb)"}, "[1]": {"tested_on": "501Mel-GP cells (Dabrafenib-resistant)", "settings": "501Mel GP", "protocol": "as §1, §2"}, "[2]": {"tested_on": "501Mel-XP cells (Vemurafenib-resistant)", "protocol": "as §1, §2"}, "[3]": {"tested_on": "A375-GP cells (Dabrafenib-resistant)", "settings": "for cell viability (kinase inhibitor library screening): A375 GP", "protocol": "as §1, §2"}, "[4]": {"tested_on": "A375-XP cells (Vemurafenib-resistant)", "settings": "for cell viability (kinase inhibitor library screening): in %", "protocol": "as §1, §2"}, "IGR37 cells (parental)": {"tested_on": "IGR37 cells (parental)", "protocol": "as §1, §2"}, "[5]": {"tested_on": "IGR37-GP cells (Dabrafenib-resistant)", "protocol": "as §1, §2"}, "[6]": {"tested_on": "IGR37-XP cells (Vemurafenib-resistant)", "protocol": "as §1, §2"}, "A375 cells (parental)": {"tested_on": "A375 cells (parental)", "protocol": "as §1, §2"}},
  "data": [
    {"compound": "CCn1c(N)c(C(=O)NC)c(=O)c2ccc(C#C[C@@](C)(O)COC)nc21", "note": "[SAR131675]", "values": [
      {"measurement": "cell viability (kinase inhibitor library screening)", "setting": "501Mel cells (parental); 501Mel Parental, 1μΜ, in %", "result": 96.4},
      {"measurement": "cell viability (kinase inhibitor library screening)", "setting": "501Mel cells (parental); 501Mel Parental, 10μΜ, in %", "result": 92.6},
      {"measurement": "cell viability (kinase inhibitor library screening)", "setting": "[1]; 1μΜ, in %", "result": 103.5},
      {"measurement": "cell viability (kinase inhibitor library screening)", "setting": "[1]; 10μΜ, in %", "result": 90.9},
      {"measurement": "cell viability (kinase inhibitor library screening)", "setting": "[2]; 501Mel XP, 1μΜ, in %", "result": 103.7},
      {"measurement": "cell viability (kinase inhibitor library screening)", "setting": "[2]; 501Mel XP, 10μΜ, in %", "result": 85.3},
      {"measurement": "cell viability (kinase inhibitor library screening)", "setting": "[3]; 1μΜ, in %", "result": 103.2},
      {"measurement": "cell viability (kinase inhibitor library screening)", "setting": "[3]; 10μΜ, in %", "result": 87.6},
      {"measurement": "cell viability (kinase inhibitor library screening)", "setting": "[4]; A375 XP, 1μΜ", "result": 108.8},
      {"measurement": "cell viability (kinase inhibitor library screening)", "setting": "IGR37 cells (parental); IGR37 Parental, 1μΜ, in %", "result": 100.2},
      {"measurement": "cell viability (kinase inhibitor library screening)", "setting": "IGR37 cells (parental); IGR37 Parental, 10μΜ, in %", "result": 99.7},
      {"measurement": "cell viability (kinase inhibitor library screening)", "setting": "[5]; IGR37 GP, 1μΜ, in %", "result": 93.4},
      {"measurement": "cell viability (kinase inhibitor library screening)", "setting": "[5]; IGR37 GP, 10μΜ, in %", "result": 96.6},
      {"measurement": "cell viability (kinase inhibitor library screening)", "setting": "[6]; IGR37 XP, 1μΜ, in %", "result": 94.6},
      {"measurement": "cell viability (kinase inhibitor library screening)", "setting": "[6]; IGR37 XP, 10μΜ, in %", "result": 71.4}
    ]},
    {"compound": "C[S+]([O-])c1ccc(-c2nc(-c3ccncc3)c(-c3ccc(F)cc3)[nH]2)cc1", "note": "(stereo not drawn) [SB 203580]", "values": [
      {"measurement": "Cell viability in kinase inhibitor library screening, 501Mel Parental, 1μΜ", "setting": "501Mel cells (parental); in %", "result": 108.7},
      {"measurement": "Cell viability in kinase inhibitor library screening, 501Mel Parental, 10μΜ", "setting": "501Mel cells (parental); in %", "result": 95.5},
      {"measurement": "Cell viability in kinase inhibitor library screening, 501Mel XP, 10μΜ", "setting": "[2]; in %", "result": 92.5},
      {"measurement": "Cell viability in kinase inhibitor library screening, A375 Parental, 1μΜ", "setting": "A375 cells (parental)", "result": 112.0},
      {"measurement": "Cell viability in kinase inhibitor library screening, A375 Parental, 10μΜ", "setting": "A375 cells (parental)", "result": 83.0},
      {"measurement": "Cell viability in kinase inhibitor library screening, A375 GP, 1μΜ", "setting": "[3]", "result": 93.4},
      {"measurement": "Cell viability in kinase inhibitor library screening, A375 GP, 10μΜ", "setting": "[3]", "result": 98.4},
      {"measurement": "Cell viability in kinase inhibitor library screening, A375 XP, 1μΜ", "setting": "[4]", "result": 111.6},
      {"measurement": "Cell viability in kinase inhibitor library screening, A375 XP, 10μΜ", "setting": "[4]", "result": 103.1},
      {"measurement": "Cell viability in kinase inhibitor library screening, IGR37 Parental, 1μΜ", "setting": "IGR37 cells (parental); in %", "result": 116.2},
      {"measurement": "Cell viability in kinase inhibitor library screening, IGR37 Parental, 10μΜ", "setting": "IGR37 cells (parental); in %", "result": 92.9},
      {"measurement": "Cell viability in kinase inhibitor library screening, IGR37 GP, 10μΜ", "setting": "[5]", "result": 86.6, "unit": "%"},
      {"measurement": "Cell viability in kinase inhibitor library screening, IGR37 GP, 1μΜ", "setting": "[5]; in %", "result": 105.2},
      {"measurement": "Cell viability in kinase inhibitor library screening, IGR37 XP, 10μΜ", "setting": "[6]", "result": 62.9, "unit": "%"},
      {"measurement": "Cell viability in kinase inhibitor library screening, IGR37 XP, 1μΜ", "setting": "[6]; in %", "result": 103.3}
    ]},
    {"compound": "Cn1cc(-c2ccc3nnc(Sc4ccc5ncccc5c4)n3n2)cn1", "note": "[SGX-523]", "values": [
      {"measurement": "cell viability (kinase inhibitor library screening)", "setting": "501Mel cells (parental); 501Mel Parental, 1μΜ, 72 h", "result": 95.0, "unit": "%"},
      {"measurement": "cell viability (kinase inhibitor library screening)", "setting": "501Mel cells (parental); 501Mel Parental, 10μΜ, 72 h", "result": 89.4, "unit": "%"},
      {"measurement": "cell viability (kinase inhibitor library screening)", "setting": "[1]; 1μΜ, 72 h", "result": 82.6, "unit": "%"},
      {"measurement": "cell viability (kinase inhibitor library screening)", "setting": "[1]; 10μΜ, 72 h", "result": 64.3, "unit": "%"},
      {"measurement": "cell viability (kinase inhibitor library screening)", "setting": "[2]; 501Mel XP, 1μΜ, 72 h", "result": 67.2, "unit": "%"},
      {"measurement": "cell viability (kinase inhibitor library screening)", "setting": "[2]; 501Mel XP, 10μΜ, 72 h", "result": 58.8, "unit": "%"},
      {"measurement": "cell viability (kinase inhibitor library screening)", "setting": "A375 cells (parental); A375 Parental, 10μΜ, 72 h", "result": 97.1, "unit": "%"},
      {"measurement": "cell viability (kinase inhibitor library screening)", "setting": "A375 cells (parental); A375 Parental, 1μΜ, 72 h", "result": 104.5, "unit": "%"},
      {"measurement": "cell viability (kinase inhibitor library screening)", "setting": "[3]; 1μΜ, 72 h", "result": 89.5, "unit": "%"},
      {"measurement": "cell viability (kinase inhibitor library screening)", "setting": "[3]; 10μΜ, 72 h", "result": 94.8, "unit": "%"},
      {"measurement": "cell viability (kinase inhibitor library screening)", "setting": "IGR37 cells (parental); IGR37 Parental, 1μΜ, 72 h", "result": 107.3, "unit": "%"},
      {"measurement": "cell viability (kinase inhibitor library screening)", "setting": "IGR37 cells (parental); IGR37 Parental, 10μΜ, 72 h", "result": 94.5, "unit": "%"},
      {"measurement": "cell viability (kinase inhibitor library screening)", "setting": "[5]; IGR37 GP, 1μΜ, 72 h", "result": 94.1, "unit": "%"},
      {"measurement": "cell viability (kinase inhibitor library screening)", "setting": "[5]; IGR37 GP, 10μΜ, 72 h", "result": 90.7, "unit": "%"},
      {"measurement": "cell viability (kinase inhibitor library screening)", "setting": "[6]; IGR37 XP, 1μΜ, 72 h", "result": 100.4, "unit": "%"},
      {"measurement": "cell viability (kinase inhibitor library screening)", "setting": "[6]; IGR37 XP, 10μΜ, 72 h", "result": 74.3, "unit": "%"}
    ]},
    {"compound": "COc1cc2nccc(Oc3ccc(NC(=O)Nc4cc(C)on4)c(Cl)c3)c2cc1OC", "note": "[Tivozanib (AV-951)]", "values": [
      {"measurement": "cell viability (kinase inhibitor library screening)", "setting": "501Mel cells (parental); 501Mel Parental, 10μΜ, in %", "result": 74.1},
      {"measurement": "cell viability (kinase inhibitor library screening)", "setting": "[1]; 1μΜ, in %", "result": 103.1},
      {"measurement": "cell viability (kinase inhibitor library screening)", "setting": "[1]; 10μΜ, in %", "result": 58.3},
      {"measurement": "cell viability (kinase inhibitor library screening)", "setting": "[2]; 501Mel XP, 1μΜ, in %", "result": 97.3},
      {"measurement": "cell viability (kinase inhibitor library screening)", "setting": "[2]; 501Mel XP, 10μΜ, in %", "result": 64.2},
      {"measurement": "cell viability (kinase inhibitor library screening)", "setting": "A375 cells (parental); A375 Parental, 1μΜ, in %", "result": 104.6},
      {"measurement": "cell viability (kinase inhibitor library screening)", "setting": "A375 cells (parental); A375 Parental, 10μΜ, in %", "result": 60.4},
      {"measurement": "cell viability (kinase inhibitor library screening)", "setting": "[3]; 1μΜ, in %", "result": 99.1},
      {"measurement": "cell viability (kinase inhibitor library screening)", "setting": "[3]; 10μΜ, in %", "result": 54.4},
      {"measurement": "cell viability (kinase inhibitor library screening)", "setting": "[4]; A375 XP, 1μΜ", "result": 105.9},
      {"measurement": "cell viability (kinase inhibitor library screening)", "setting": "[4]; A375 XP, 10μΜ", "result": 77.7},
      {"measurement": "cell viability (kinase inhibitor library screening)", "setting": "IGR37 cells (parental); IGR37 Parental, 1μΜ, in %", "result": 97.2},
      {"measurement": "cell viability (kinase inhibitor library screening)", "setting": "IGR37 cells (parental); IGR37 Parental, 10μΜ, in %", "result": 83.4},
      {"measurement": "cell viability (kinase inhibitor library screening)", "setting": "[6]; IGR37 XP, 10μΜ, in %", "result": 55.2}
    ]},
    {"compound": "AZD4547", "values": [
      {"measurement": "cell viability, 501Mel Parental, 10μΜ", "setting": "501Mel cells (parental); 501Mel Parental, 10μΜ, 72 h", "result": 11.5},
      {"measurement": "cell viability, 501Mel GP, 10μΜ", "setting": "[1]; 10μΜ, 72 h", "result": 57.3},
      {"measurement": "cell viability, 501Mel XP, 1μΜ", "setting": "[2]; 501Mel XP, 1μΜ, 72 h", "result": 93.2},
      {"measurement": "cell viability, 501Mel XP, 10μΜ", "setting": "[2]; 501Mel XP, 10μΜ, 72 h", "result": 14.1},
      {"measurement": "cell viability, A375 Parental, 10μΜ", "setting": "A375 cells (parental); A375 Parental, 10μΜ, 72 h", "result": 58.2},
      {"measurement": "cell viability, A375 XP, 1μΜ", "setting": "[4]; A375 XP, 1μΜ, 72 h", "result": 100.3},
      {"measurement": "cell viability, A375 XP, 10μΜ", "setting": "[4]; A375 XP, 10μΜ, 72 h", "result": 49.7},
      {"measurement": "cell viability, IGR37 Parental, 10μΜ", "setting": "IGR37 cells (parental); IGR37 Parental, 10μΜ, 72 h", "result": 46.6},
      {"measurement": "cell viability, IGR37 GP, 1μΜ", "setting": "[5]; IGR37 GP, 1μΜ, 72 h", "result": 93.7},
      {"measurement": "cell viability, IGR37 GP, 10μΜ", "setting": "[5]; IGR37 GP, 10μΜ, 72 h", "result": 19.5},
      {"measurement": "cell viability, IGR37 XP, 1μΜ", "setting": "[6]; IGR37 XP, 1μΜ, 72 h", "result": 94.4},
      {"measurement": "cell viability, IGR37 XP, 10μΜ", "setting": "[6]; IGR37 XP, 10μΜ, 72 h", "result": 6.4}
    ]}
  ]
}
